From the NIST ThermoML archive (doi:10.1021/je100888h)

Legend:
[1] = 101 kPa, Liquid
[2] = xn = mol fraction of the nth substance listed; settings: 101 kPa, Liquid

Cc1ccccc1O [2-methylphenol]
Settings	mass density [kg/m3]
[1], 303.15 K	1036.94

Cc1ccccc1O [2-methylphenol] + CCCCCCCC
[2], 303.15 K
Settings	mass density [kg/m3]
x2 = 0.0779	998.31
x2 = 0.1634	958.43
x2 = 0.2569	918.23
x2 = 0.299	901.26
x2 = 0.36	877.71
x2 = 0.4277	853.18
x2 = 0.4797	835.08
x2 = 0.5787	803.61
x2 = 0.6607	779.19
x2 = 0.7664	750.13
x2 = 0.8032	740.51
x2 = 0.9143	713.35

Cc1ccccc1O [2-methylphenol] + Cc1ccccc1
[2], 303.15 K
Settings	mass density [kg/m3]
x2 = 0.0529	1027.55
x2 = 0.0849	1021.91
x2 = 0.1409	1011.86
x2 = 0.203	1000.75
x2 = 0.2749	987.89
x2 = 0.341	975.95
x2 = 0.4343	959.13
x2 = 0.5187	943.88
x2 = 0.6073	927.88
x2 = 0.6873	913.43
x2 = 0.7547	901.26
x2 = 0.7852	895.73
x2 = 0.8381	886.24
x2 = 0.8481	884.43
x2 = 0.9068	873.9
x2 = 0.9346	869.01
x2 = 0.9737	862.08

Cc1ccccc1O [2-methylphenol] + O
[2], 303.15 K
Settings	mass density [kg/m3]
x1 = 0.5953	1033.22
x1 = 0.675	1034.33
x1 = 0.8012	1035.55
x1 = 0.8184	1035.9
x1 = 0.8443	1036.16
x1 = 0.8903	1036.47
x1 = 0.8909	1036.26
x1 = 0.9409	1036.95

Cc1cccc(O)c1 [3-methylphenol]
Settings	mass density [kg/m3]
[1], 303.15 K	1025.95

Cc1cccc(O)c1 [3-methylphenol] + CCCCCCCC
[2], 303.15 K
Settings	mass density [kg/m3]
x2 = 0.1197	970.59
x2 = 0.2473	916.86
x2 = 0.3868	864.19
x2 = 0.5012	825.55
x2 = 0.6387	783.91
x2 = 0.7818	745.29
x2 = 0.8773	721.91

Cc1cccc(O)c1 [3-methylphenol] + Cc1ccccc1
[2], 303.15 K
Settings	mass density [kg/m3]
x2 = 0.0563	1016.89
x2 = 0.0853	1012.17
x2 = 0.1619	999.57
x2 = 0.2521	984.6
x2 = 0.3053	975.73
x2 = 0.3799	963.22
x2 = 0.4494	951.45
x2 = 0.5205	939.49
x2 = 0.7198	905.42
x2 = 0.8129	889.49
x2 = 0.8723	879.32
x2 = 0.9534	865.4

Cc1cccc(O)c1 [3-methylphenol] + O
[2], 303.15 K
Settings	mass density [kg/m3]
x1 = 0.547	1020.94
x1 = 0.5754	1021.37
x1 = 0.6312	1022.09
x1 = 0.6558	1022.4
x1 = 0.704	1022.95
x1 = 0.7933	1023.97
x1 = 0.7997	1024.04
x1 = 0.8215	1024.36
x1 = 0.845	1024.52
x1 = 0.8635	1024.3
x1 = 0.8759	1024.67
x1 = 0.8839	1024.94
x1 = 0.9231	1025.3
x1 = 0.9426	1025.49
x1 = 0.9703	1025.78

Cc1ccc(O)cc1 [4-methylphenol]
Settings	mass density [kg/m3]
[1], 303.15 K	1025.9

Cc1ccc(O)cc1 [4-methylphenol] + Cc1ccccc1
[2], 303.15 K
Settings	mass density [kg/m3]
x2 = 0.0588	1016.31
x2 = 0.1156	1007.12
x2 = 0.1715	997.89
x2 = 0.2813	979.91
x2 = 0.3882	962.16
x2 = 0.4914	944.32
x2 = 0.5885	929.7
x2 = 0.6906	912.26
x2 = 0.775	897.37
x2 = 0.8337	887.52
x2 = 0.886	877.87
x2 = 0.962	864.24

Cc1ccc(O)cc1 [4-methylphenol] + O
[2], 303.15 K
Settings	mass density [kg/m3]
x1 = 0.548	1020.42
x1 = 0.6243	1021.77
x1 = 0.6758	1022.35
x1 = 0.74	1023.33
x1 = 0.7976	1023.92
x1 = 0.8897	1025.1

CCCCCCCC [octane]
Settings	mass density [kg/m3]
[1], 303.15 K	694.52

Oc1ccccc1 [phenol]
Settings	mass density [kg/m3]
[1], 313.15 K	1058.3

Oc1ccccc1 [phenol] + Cc1ccccc1
[2], 313.15 K
Settings	mass density [kg/m3]
x2 = 0.0999	1033.8
x2 = 0.1576	1021.66
x2 = 0.2581	998.46
x2 = 0.3492	978.14
x2 = 0.4363	959.22
x2 = 0.5438	936.46
x2 = 0.6351	917.72
x2 = 0.7288	898.99
x2 = 0.8334	878.75
x2 = 0.9015	865.97

Oc1ccccc1 [phenol] + O
[2], 313.15 K
Settings	mass density [kg/m3]
x1 = 0.3794	1038.84
x1 = 0.4653	1042.74
x1 = 0.6176	1048.12
x1 = 0.7052	1050.69
x1 = 0.8247	1054.06
x1 = 0.9099	1056.28

Cc1ccccc1 [toluene]
[1]
Settings	mass density [kg/m3]
303.15 K	857.47
313.15 K	848.07
